Assay results: patent US5202315A, “Cephalosporin compounds” (Lucky, Ltd., priority 1989, dated 1993)
Values after ≈ are worked out from the molar mass of the structure shown.

Tests used:
Test in all cases: Antibacterial activity, MIC
Format in all cases: cell-based
[1] = system: Pseudomonas aeruginosa ATCC 10145; conditions: ATCC10145, ATCC 10145, agar two-fold dilution, 37° C., 20 hours, read-out: MIC
Method in brief: (§1)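 Incubation at 37 °C for 20 h followed inoculation of 2 μl standard strain (10^7 CFU/ml) onto agar carrying the compound. Compound was incorporated into Mueller-Hinton agar as two-fold serial dilutions.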

[2] = system: Staphylococcus aureus ATCC 6538p; conditions: ATCC6538P, ATCC 6538p, agar two-fold dilution, 37° C., 20 hours, read-out: MIC
Method in brief: as §1

[3] = system: Staphylococcus epidermidis ATCC 12228; conditions: ATCC12228, ATCC 12228, agar two-fold dilution, 37° C., 20 hours, read-out: MIC
Method in brief: as §1

[4] = system: Escherichia coli ATCC 10536; conditions: ATCC10536, agar two-fold dilution, 37° C., 20 hours
Method in brief: as §1

[5] = system: Serratia marcescens ATCC 27117; conditions: ATCC27117, ATCC 27117, agar two-fold dilution, 37° C., 20 hours, read-out: MIC
Method in brief: as §1

[6] = system: Bacillus cereus ATCC 11778; conditions: ATCC11778, ATCC 11778, agar two-fold dilution, 37° C., 20 hours, read-out: MIC
Method in brief: as §1

[7] = system: Proteus mirabilis ATCC 25933; conditions: ATCC25933, ATCC 25933, agar two-fold dilution, 37° C., 20 hours, read-out: MIC
Method in brief: as §1

[8] = system: Providencia rettgeri ATCC 9250; conditions: ATCC9250, agar two-fold dilution, 37° C., 20 hours
Method in brief: as §1

[9] = system: Proteus vulgaris ATCC 6059; conditions: ATCC6059, ATCC 6059, agar two-fold dilution, 37° C., 20 hours, read-out: MIC
Method in brief: as §1

[10] = system: Enterobacter aerogenes ATCC 29751; conditions: Klebsiella aerogenes, ATCC29751; ATCC 29751; agar two-fold dilution, 37° C., 20 hours; read-out: MIC
Method in brief: as §1

[11] = system: Morganella morganii ATCC 8076h; conditions: ATCC8076H, agar two-fold dilution, 37° C., 20 hours
Method in brief: as §1

[12] = system: Micrococcus luteus ATCC 9341; conditions: ATCC9341, ATCC 9341, agar two-fold dilution, 37° C., 20 hours, read-out: MIC
Method in brief: as §1

[13] = system: Pseudomonas aeruginosa ATCC 27853; conditions: ATCC27853, ATCC 27853, agar two-fold dilution, 37° C., 20 hours, read-out: MIC
Method in brief: as §1

[14] = system: Staphylococcus aureus ATCC 10537; conditions: ATCC10537, ATCC 10537, agar two-fold dilution, 37° C., 20 hours, read-out: MIC
Method in brief: as §1

[15] = system: Shigella sonnei ATCC 11060; conditions: ATCC11060, ATCC 11060, agar two-fold dilution, 37° C., 20 hours, read-out: MIC
Method in brief: as §1

[16] = system: Salmonella typhimurium ATCC 14028; conditions: Salmonella enterica; ATCC 14028; agar two-fold dilution, 37° C., 20 hours; read-out: MIC
Method in brief: as §1

[17] = system: Bacillus megaterium ATCC 9885; conditions: Priestia megaterium, ATCC9885; ATCC 9885; agar two-fold dilution, 37° C., 20 hours; read-out: MIC
Method in brief: as §1

[18] = system: Klebsiella pneumoniae ATCC 10031; conditions: ATCC10031, ATCC 10031, agar two-fold dilution, 37° C., 20 hours, read-out: MIC
Method in brief: as §1

[19] = system: Pseudomonas aeruginosa ATCC 25619; conditions: ATCC25619, ATCC 25619, agar two-fold dilution, 37° C., 20 hours, read-out: MIC
Method in brief: as §1

[20] = system: Shigella flexneri ATCC 11836; conditions: ATCC11836, agar two-fold dilution, 37° C., 20 hours
Method in brief: as §1

[21] = system: Enterobacter cloacae ATCC 27508; conditions: ATCC27508, ATCC 27508, agar two-fold dilution, 37° C., 20 hours, read-out: MIC
Method in brief: as §1

[22] = system: Citrobacter freundii ATCC 8090; conditions: ATCC8090, ATCC 8090, agar two-fold dilution, 37° C., 20 hours, read-out: MIC
Method in brief: as §1

[23] = system: Streptococcus faecalis ATCC 29212; conditions: Enterococcus faecalis, ATCC29212; ATCC 29212; agar two-fold dilution, 37° C., 20 hours; read-out: MIC
Method in brief: as §1

[24] = system: Escherichia coli ATCC 25922; conditions: ATCC25922, agar two-fold dilution, 37° C., 20 hours
Method in brief: as §1

[25] = system: Acinetobacter calcoaceticus ATCC 15473; conditions: ATCC15473, ATCC 15473, agar two-fold dilution, 37° C., 20 hours, read-out: MIC
Method in brief: as §1

Row | SMILES | MIC [1] | MIC [2] | MIC [3] | MIC [4] | MIC [5] | MIC [6] | MIC [7] | MIC [8] | MIC [9] | MIC [10] | MIC [11] | MIC [12] | MIC [13] | MIC [14] | MIC [15] | MIC [16] | MIC [17] | MIC [18] | MIC [19] | MIC [20] | further results
1 | CCO/N=C(\C(=O)NC1C(=O)N2C(C(=O)[O-])=C(CSc3nc(N)cc(N)[n+]3CC)CSC12)c1nsc(N)n1 (stereo not drawn) [Compound I-21] | 4 µg/mL (≈ 6.89 µM) | 0.5 µg/mL (≈ 0.861 µM) | 0.13 µg/mL (≈ 0.224 µM) | 0.13 µg/mL (≈ 0.224 µM) | 0.25 µg/mL (≈ 0.431 µM) | 16 µg/mL (≈ 27.6 µM) | 1 µg/mL (≈ 1.72 µM) | ≤ 0.008 µg/mL | 1 µg/mL (≈ 1.72 µM) | 0.5 µg/mL (≈ 0.861 µM) | 0.016 µg/mL (≈ 0.0276 µM) | 0.016 µg/mL (≈ 0.0276 µM) | 2 µg/mL (≈ 3.44 µM) | 0.25 µg/mL (≈ 0.431 µM) | 0.25 µg/mL (≈ 0.431 µM) | 0.5 µg/mL (≈ 0.861 µM) | 0.13 µg/mL (≈ 0.224 µM) | 0.016 µg/mL (≈ 0.0276 µM) | 1 µg/mL (≈ 1.72 µM) | 0.063 µg/mL (≈ 0.108 µM) | MIC [21]: 0.016 µg/mL (≈ 0.0276 µM); MIC [22]: 0.13 µg/mL (≈ 0.224 µM); MIC [23]: 16 µg/mL (≈ 27.6 µM); MIC [24]: 0.13 µg/mL (≈ 0.224 µM); MIC [25]: 4 µg/mL (≈ 6.89 µM)
2 | CCC[n+]1c(N)cc(N)nc1SCC1=C(C(=O)[O-])N2C(=O)C(NC(=O)/C(=N\OCC)c3nsc(N)n3)C2SC1 (stereo not drawn) [Compound I-22] | 16 µg/mL (≈ 26.9 µM) | 0.5 µg/mL (≈ 0.841 µM) | 0.25 µg/mL (≈ 0.42 µM) | 0.25 µg/mL (≈ 0.42 µM) | 0.5 µg/mL (≈ 0.841 µM) | 16 µg/mL (≈ 26.9 µM) | 2 µg/mL (≈ 3.36 µM) | ≤ 0.008 µg/mL | 2 µg/mL (≈ 3.36 µM) | 1 µg/mL (≈ 1.68 µM) | 0.031 µg/mL (≈ 0.0521 µM) | 0.016 µg/mL (≈ 0.0269 µM) | 4 µg/mL (≈ 6.73 µM) | 0.5 µg/mL (≈ 0.841 µM) | 0.5 µg/mL (≈ 0.841 µM) | 2 µg/mL (≈ 3.36 µM) | 0.13 µg/mL (≈ 0.219 µM) | 0.016 µg/mL (≈ 0.0269 µM) | 1 µg/mL (≈ 1.68 µM) | 0.13 µg/mL (≈ 0.219 µM) | MIC [21]: 0.031 µg/mL (≈ 0.0521 µM); MIC [22]: 0.25 µg/mL (≈ 0.42 µM); MIC [23]: 16 µg/mL (≈ 26.9 µM); MIC [24]: 0.25 µg/mL (≈ 0.42 µM); MIC [25]: 4 µg/mL (≈ 6.73 µM)
3 | C=CC[n+]1c(N)cc(N)nc1SCC1=C(C(=O)[O-])N2C(=O)C(NC(=O)/C(=N\OCC)c3nsc(N)n3)C2SC1 (stereo not drawn) [Compound I-23] | 16 µg/mL (≈ 27 µM) | 1 µg/mL (≈ 1.69 µM) | 0.25 µg/mL (≈ 0.422 µM) | 0.5 µg/mL (≈ 0.844 µM) | 1 µg/mL (≈ 1.69 µM) | 16 µg/mL (≈ 27 µM) | 2 µg/mL (≈ 3.37 µM) | ≤ 0.008 µg/mL | 1 µg/mL (≈ 1.69 µM) | 2 µg/mL (≈ 3.37 µM) | 0.031 µg/mL (≈ 0.0523 µM) | 0.016 µg/mL (≈ 0.027 µM) | 8 µg/mL (≈ 13.5 µM) | 1 µg/mL (≈ 1.69 µM) | 0.5 µg/mL (≈ 0.844 µM) | 2 µg/mL (≈ 3.37 µM) | 0.25 µg/mL (≈ 0.422 µM) | 0.031 µg/mL (≈ 0.0523 µM) | 2 µg/mL (≈ 3.37 µM) | 0.13 µg/mL (≈ 0.219 µM) | MIC [21]: 0.031 µg/mL (≈ 0.0523 µM); MIC [22]: 0.25 µg/mL (≈ 0.422 µM); MIC [23]: 32 µg/mL (≈ 54 µM); MIC [24]: 0.25 µg/mL (≈ 0.422 µM); MIC [25]: 8 µg/mL (≈ 13.5 µM)
4 | CO/N=C(\C(=O)NC1C(=O)N2C(C(=O)[O-])=C(CSc3nc(N)cc(N)[n+]3C)CSC12)c1nsc(N)n1 (stereo not drawn) [Compound I-24] | 16 µg/mL (≈ 29 µM) | 0.5 µg/mL (≈ 0.905 µM) | 0.25 µg/mL (≈ 0.452 µM) | 0.13 µg/mL (≈ 0.235 µM) | 0.25 µg/mL (≈ 0.452 µM) | 32 µg/mL (≈ 57.9 µM) | 1 µg/mL (≈ 1.81 µM) | 0.016 µg/mL (≈ 0.029 µM) | 1 µg/mL (≈ 1.81 µM) | 1 µg/mL (≈ 1.81 µM) | 0.063 µg/mL (≈ 0.114 µM) | 0.13 µg/mL (≈ 0.235 µM) | 4 µg/mL (≈ 7.24 µM) | 0.5 µg/mL (≈ 0.905 µM) | 0.13 µg/mL (≈ 0.235 µM) | 0.5 µg/mL (≈ 0.905 µM) | 0.25 µg/mL (≈ 0.452 µM) | 0.031 µg/mL (≈ 0.0561 µM) | 4 µg/mL (≈ 7.24 µM) | 0.031 µg/mL (≈ 0.0561 µM) | MIC [21]: 0.063 µg/mL (≈ 0.114 µM); MIC [22]: 0.13 µg/mL (≈ 0.235 µM); MIC [23]: 32 µg/mL (≈ 57.9 µM); MIC [24]: 0.13 µg/mL (≈ 0.235 µM); MIC [25]: 2 µg/mL (≈ 3.62 µM)
5 | CC[n+]1c(N)cc(N)nc1SCC1=C(C(=O)[O-])N2C(=O)C(NC(=O)/C(=N\OC)c3nsc(N)n3)C2SC1 (stereo not drawn) [Compound I-25] | 16 µg/mL (≈ 28.2 µM) | 0.5 µg/mL (≈ 0.882 µM) | 0.13 µg/mL (≈ 0.229 µM) | 0.13 µg/mL (≈ 0.229 µM) | 0.25 µg/mL (≈ 0.441 µM) | 32 µg/mL (≈ 56.5 µM) | 1 µg/mL (≈ 1.76 µM) | 0.016 µg/mL (≈ 0.0282 µM) | 1 µg/mL (≈ 1.76 µM) | 1 µg/mL (≈ 1.76 µM) | 0.031 µg/mL (≈ 0.0547 µM) | 0.031 µg/mL (≈ 0.0547 µM) | 4 µg/mL (≈ 7.06 µM) | 0.5 µg/mL (≈ 0.882 µM) | 0.13 µg/mL (≈ 0.229 µM) | 0.25 µg/mL (≈ 0.441 µM) | 0.13 µg/mL (≈ 0.229 µM) | 0.031 µg/mL (≈ 0.0547 µM) | 4 µg/mL (≈ 7.06 µM) | 0.031 µg/mL (≈ 0.0547 µM) | MIC [21]: 0.031 µg/mL (≈ 0.0547 µM); MIC [22]: 0.13 µg/mL (≈ 0.229 µM); MIC [23]: 32 µg/mL (≈ 56.5 µM); MIC [24]: 0.13 µg/mL (≈ 0.229 µM); MIC [25]: 2 µg/mL (≈ 3.53 µM)
6 | C[n+]1c(N)cc(N)nc1SCC1=C(C(=O)[O-])N2C(=O)C(NC(=O)/C(=N\OC(C)(C)C(=O)O)c3nsc(N)n3)C2SC1 (stereo not drawn) [Compound I-26] | 2 µg/mL (≈ 3.2 µM) | 8 µg/mL (≈ 12.8 µM) | 4 µg/mL (≈ 6.4 µM) | 0.13 µg/mL (≈ 0.208 µM) | 0.25 µg/mL (≈ 0.4 µM) | > 128 µg/mL | 0.13 µg/mL (≈ 0.208 µM) | ≤ 0.008 µg/mL | 0.13 µg/mL (≈ 0.208 µM) | 1 µg/mL (≈ 1.6 µM) | ≤ 0.008 µg/mL | 1 µg/mL (≈ 1.6 µM) | 2 µg/mL (≈ 3.2 µM) | 8 µg/mL (≈ 12.8 µM) | 0.13 µg/mL (≈ 0.208 µM) | 0.5 µg/mL (≈ 0.8 µM) | 1 µg/mL (≈ 1.6 µM) | 0.13 µg/mL (≈ 0.208 µM) | 2 µg/mL (≈ 3.2 µM) | 0.063 µg/mL (≈ 0.101 µM) | MIC [21]: 0.031 µg/mL (≈ 0.0496 µM); MIC [22]: 0.13 µg/mL (≈ 0.208 µM); MIC [23]: > 128 µg/mL; MIC [24]: 0.13 µg/mL (≈ 0.208 µM); MIC [25]: 4 µg/mL (≈ 6.4 µM)
